The target in series [1] is hERG (KCNH2) (Homo sapiens, UniProt Q12809). Kind of series: Inhibition of human ERG current in HEK293 cells at 10 uM by patch clamp method relative to control. The conditions noted are these: HEK293 cells expressing human ERG. In kind it is cell-based. (The patch-clamp technique gives a direct electrical read-out from membranes.)
Series [2] addresses T1, Potassium voltage-gated channel subfamily A member 5 (Homo sapiens, UniProt P22460). Kind of series: Antagonist activity at human Kv1.5 expressed in mouse L929 cells assessed as inhibition of delayed rectifier repolarization current by patch clamp assay. In kind it is cell-based.
Series [3] has as its target T1, Potassium voltage-gated channel subfamily A member 5. Kind of series: Antagonist activity at human Kv1.5 expressed in mouse L929 cells assessed as inhibition of delayed rectifier repolarization current at 0.3 uM by patch clamp assay relative to control. The series is classed as cell-based.
The target in series [4] is T2, Nuclear receptor subfamily 1 group I member 2 (Homo sapiens, UniProt O75469).
T2 sequence (O75469 whole entry): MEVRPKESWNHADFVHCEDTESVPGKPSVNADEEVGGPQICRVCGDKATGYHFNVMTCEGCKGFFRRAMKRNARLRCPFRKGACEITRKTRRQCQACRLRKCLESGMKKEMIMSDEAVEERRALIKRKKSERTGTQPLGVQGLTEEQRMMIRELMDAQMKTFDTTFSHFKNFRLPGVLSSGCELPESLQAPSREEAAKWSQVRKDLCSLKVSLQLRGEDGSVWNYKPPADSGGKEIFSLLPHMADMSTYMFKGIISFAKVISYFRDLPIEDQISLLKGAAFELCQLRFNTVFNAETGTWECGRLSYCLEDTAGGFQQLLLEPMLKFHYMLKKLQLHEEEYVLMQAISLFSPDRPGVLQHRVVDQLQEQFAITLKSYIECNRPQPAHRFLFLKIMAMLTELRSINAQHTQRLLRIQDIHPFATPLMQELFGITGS
In words: Transactivation of PXR (unknown origin).

The nature of series [5]: Clearance in Sprague-Dawley rat at 1 mg/kg, iv. The arrangement: dose 1 mg/kg, route intravenous. The conditions noted are these: in vivo. The series is classed as ADME, organism-based.
Series [6] is described as follows: Half life in Sprague-Dawley rat at 1 mg/kg, iv. In kind it is ADME, organism-based. Further details: dose 1 mg/kg, route intravenous. The conditions noted are these: in vivo.

Each structure is given as a SMILES string.

As a reminder, the inhibition is the relative decrease from the control value, in per cent. The IC50 is the concentration that gives 50% inhibition. The EC20 is the concentration at which the effect reaches the 20% level. The term clearance denotes a measure of how efficiently the substance is removed, as volume per time. Lower therefore signals a low capacity for elimination. In general, half-life refers to the time in which the quantity being followed falls by half.

T1 sequence (P22460 whole entry): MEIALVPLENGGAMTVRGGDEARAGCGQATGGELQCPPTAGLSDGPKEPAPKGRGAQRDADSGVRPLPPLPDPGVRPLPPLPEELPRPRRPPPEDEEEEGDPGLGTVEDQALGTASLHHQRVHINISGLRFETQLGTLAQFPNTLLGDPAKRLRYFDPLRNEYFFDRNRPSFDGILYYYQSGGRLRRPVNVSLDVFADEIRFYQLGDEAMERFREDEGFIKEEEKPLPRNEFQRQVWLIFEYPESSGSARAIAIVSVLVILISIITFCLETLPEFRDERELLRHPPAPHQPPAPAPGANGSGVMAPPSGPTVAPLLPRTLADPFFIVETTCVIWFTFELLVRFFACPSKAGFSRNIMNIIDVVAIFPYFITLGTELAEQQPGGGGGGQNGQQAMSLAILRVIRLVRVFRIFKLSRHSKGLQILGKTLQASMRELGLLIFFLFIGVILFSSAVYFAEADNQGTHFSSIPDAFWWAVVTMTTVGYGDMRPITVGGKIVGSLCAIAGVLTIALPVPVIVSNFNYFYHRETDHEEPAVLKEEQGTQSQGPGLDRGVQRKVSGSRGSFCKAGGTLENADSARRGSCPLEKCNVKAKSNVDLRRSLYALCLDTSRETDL
Sequence of hERG (KCNH2) (Q12809 whole entry): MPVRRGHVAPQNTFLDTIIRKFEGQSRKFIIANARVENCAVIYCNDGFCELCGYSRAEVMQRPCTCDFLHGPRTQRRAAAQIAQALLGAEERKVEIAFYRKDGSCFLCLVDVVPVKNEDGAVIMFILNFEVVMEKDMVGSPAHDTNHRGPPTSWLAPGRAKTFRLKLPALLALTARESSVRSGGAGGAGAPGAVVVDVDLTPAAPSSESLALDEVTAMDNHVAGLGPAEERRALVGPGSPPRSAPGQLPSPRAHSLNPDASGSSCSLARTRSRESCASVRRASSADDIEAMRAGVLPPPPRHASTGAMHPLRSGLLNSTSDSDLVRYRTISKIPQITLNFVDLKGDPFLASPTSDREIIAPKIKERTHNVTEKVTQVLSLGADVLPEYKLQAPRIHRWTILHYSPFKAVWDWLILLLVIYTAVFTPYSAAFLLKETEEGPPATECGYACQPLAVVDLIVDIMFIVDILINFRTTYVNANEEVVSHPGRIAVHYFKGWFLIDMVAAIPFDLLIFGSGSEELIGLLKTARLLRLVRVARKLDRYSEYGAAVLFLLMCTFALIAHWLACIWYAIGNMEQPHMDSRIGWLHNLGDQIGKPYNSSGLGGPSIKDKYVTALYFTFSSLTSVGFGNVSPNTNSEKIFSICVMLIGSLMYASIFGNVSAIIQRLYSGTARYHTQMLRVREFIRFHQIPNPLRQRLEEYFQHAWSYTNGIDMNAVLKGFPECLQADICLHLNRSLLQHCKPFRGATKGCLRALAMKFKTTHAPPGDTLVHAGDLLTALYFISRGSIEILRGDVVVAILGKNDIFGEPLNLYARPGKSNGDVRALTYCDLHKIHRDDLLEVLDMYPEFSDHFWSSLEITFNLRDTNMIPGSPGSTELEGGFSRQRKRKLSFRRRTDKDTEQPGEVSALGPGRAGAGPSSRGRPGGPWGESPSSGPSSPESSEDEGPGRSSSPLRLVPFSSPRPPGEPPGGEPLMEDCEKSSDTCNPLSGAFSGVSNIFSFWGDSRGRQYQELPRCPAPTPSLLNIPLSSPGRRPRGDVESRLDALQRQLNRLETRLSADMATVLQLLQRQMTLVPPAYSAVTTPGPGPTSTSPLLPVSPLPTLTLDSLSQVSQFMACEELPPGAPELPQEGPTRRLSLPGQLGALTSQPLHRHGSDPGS

In turn, `CC1=C(c2ncnn2C(C)C)[C@@H](c2ccc(Cl)c(Cl)c2)n2nccc2N1` returned an inhibition at 10 µM in series [1] of 26%. The IC50 in series [2] amounted to 89 nM.

As for `CC1=C(c2ncnn2C2CCCCC2)[C@@H](c2ccc(Cl)c(Cl)c2)n2nccc2N1`, the inhibition at 10 µM in series [1] was 87%. The IC50 in series [2] was determined as 59 nM.

Take `CC1=C(c2ncnn2CCO)[C@@H](c2ccc(Cl)c(Cl)c2)n2nccc2N1`: the inhibition in series [3] is 6%.

On to `COCc1cc2n(n1)[C@H](c1ccc(Cl)c(Cl)c1)C(c1ncnn1C1CCC1)=C(C)N2`, for which, in series [3], the inhibition came to 25%.

Consider `CC1=C(c2ncnn2-c2ccc(C)cn2)[C@@H](c2ccc(Cl)c(Cl)c2)n2nc(C(F)(F)F)cc2N1`, for which the half-maximal inhibitory concentration (IC50) in series [2] amounted to 389 nM.

Turning to `CC1=C(c2ncnn2-c2ccccn2)[C@@H](c2ccc(Cl)c(Cl)c2)n2nc(C(F)(F)F)cc2N1`, the inhibition in series [3] came to 11%.

Turning to `COc1ccc(-n2cnc(C3=C(C)Nc4cc(C)nn4[C@@H]3c3ccc(Cl)c(Cl)c3)n2)cc1`, the inhibition in series [3] came to 5%.

The compound `COc1cccc(-n2ncnc2C2=C(C)Nc3cc(C(F)(F)F)nn3[C@@H]2c2ccc(Cl)c(Cl)c2)n1` yielded an EC20 in series [4] of 960 nM. The inhibition at 10 µM in series [1] amounted to 98%. In addition, the IC50 in series [2] came to 87 nM.

Consider `CC1=C(c2ncnn2-c2ccccc2F)[C@@H](c2ccc(Cl)c(Cl)c2)n2nccc2N1`, for which, in series [2], the IC50 came out at 74 nM.

For the compound `CC1=C(c2ncnn2Cc2ccccc2)[C@@H](c2ccc(Cl)c(Cl)c2)n2nccc2N1`, the IC50 in series [2] turned out to be 135 nM.

Compound `CCOc1cccc(-n2ncnc2C2=C(C)Nc3cc(C(F)(F)F)nn3[C@@H]2c2ccc(Cl)c(Cl)c2)n1` showed an EC20 in series [4] of 1100 nM. The IC50 in series [2] came to 223 nM.

In the case of `CC1=C(c2ncn(-c3ccccc3C)n2)[C@@H](c2ccc(Cl)c(Cl)c2)n2nc(C)cc2N1`, in series [2], the IC50 worked out at 722 nM.

With `CCCn1ncnc1C1=C(C)Nc2ccnn2[C@@H]1c1ccc(Cl)c(Cl)c1`, the IC50 in series [2] was found to be 102 nM.

Regarding `CCn1ccnc1C1=C(C)Nc2cc(C(F)(F)F)nn2[C@@H]1c1ccc(Cl)c(Cl)c1`, in series [4], the EC20 worked out at 110 nM. The IC50 in series [2] is 128 nM.

In turn, `CC1=C(c2ncnn2C2CCC2)[C@@H](c2ccc(Cl)c(Cl)c2)n2nc(C)cc2N1` showed a clearance in series [5] of 101 mL/min/kg. Further, the half-life in series [6] is 36 min. Besides, at 10 µM the inhibition in series [1] was 40%. For the same compound, in series [2], the half-maximal inhibitory concentration (IC50) worked out at 94 nM.

`CC1=C(c2ncnn2CCC(F)(F)F)[C@@H](c2ccc(Cl)c(Cl)c2)n2nccc2N1`: the half-inhibitory concentration (IC50) in series [2] was 151 nM.

In the case of `CC1=C(c2ncnn2CC(F)(F)F)[C@@H](c2ccc(Cl)c(Cl)c2)n2nccc2N1`, the concentration for half-maximal inhibition (IC50) in series [2] is 200 nM.

In the case of `CC1=C(c2ncn(-c3ccccc3F)n2)[C@@H](c2ccc(Cl)c(Cl)c2)n2nc(C)cc2N1`, the inhibition in series [3] stood at 23%.

For `CC1=C(c2nccn2C(C)C)[C@@H](c2ccc(Cl)c(Cl)c2)n2nc(C(F)(F)F)cc2N1`, the clearance in series [5] stood at 63 mL/min/kg. This compound gave a half-life in series [6] of 54 min. The compound further displayed a 20% effect concentration (EC20) in series [4] of 110 nM. In series [2], the 50% inhibitory concentration (IC50) is 204 nM.

Consider `CC1=C(c2ncnn2C2CCC2)[C@@H](c2ccc(Cl)c(Cl)c2)n2nc(C(F)(F)F)cc2N1`, for which, in series [2], the 50% inhibitory concentration (IC50) was found to be 165 nM.

`CCn1ncnc1C1=C(C)Nc2ccnn2[C@@H]1c1ccc(Cl)c(Cl)c1`: the IC50 in series [2] turned out to be 191 nM.

Take `COc1ccccc1-n1ncnc1C1=C(C)Nc2ccnn2[C@@H]1c1ccc(Cl)c(Cl)c1`: in series [2], the IC50 was 116 nM.

`CC1=C(c2ncnn2-c2cccc(F)n2)[C@@H](c2ccc(Cl)c(Cl)c2)n2nc(C(F)(F)F)cc2N1` came in with a 20% effect concentration (EC20) in series [4] of 70 nM. The concentration for half-maximal inhibition (IC50) in series [2] was 256 nM.

Compound `CCOCCn1ccnc1C1=C(C)Nc2cc(C(F)(F)F)nn2[C@@H]1c1ccc(Cl)c(Cl)c1` gave a clearance in series [5] of 45 mL/min/kg. Also, the half-life in series [6] is 36 min. This compound also displayed a concentration for an effect of 20% (EC20) in series [4] of 640 nM. The IC50 in series [2] was determined as 98 nM.

For the compound `CC1=C(c2ncnn2C2CCCCC2)[C@@H](c2ccc(Cl)c(Cl)c2)n2nc(C)cc2N1`, the 50% inhibitory concentration (IC50) in series [2] was 127 nM.

As for `CC1=C(c2ncnn2-c2cccc(F)c2)[C@@H](c2ccc(Cl)c(Cl)c2)n2nccc2N1`, in series [2], the concentration for half-maximal inhibition (IC50) came to 97 nM.

Regarding `CC1=C(C(=O)N2CCN(c3ccc(F)cc3)CC2)[C@@H](c2ccc(Cl)c(Cl)c2)n2nccc2N1`, the clearance in series [5] worked out at 134 mL/min/kg. Besides, the half-life in series [6] was 36 min.

Consider `CC1=C(c2ncnn2-c2ccc(C)cc2)[C@@H](c2ccc(Cl)c(Cl)c2)n2nc(C)cc2N1`, for which, in series [3], the inhibition is 25%.

For the compound `COc1ccccc1-n1cnc(C2=C(C)Nc3cc(C)nn3[C@@H]2c2ccc(Cl)c(Cl)c2)n1`, the inhibition in series [3] came out at 4%.

Regarding `CC1=C(c2ncnn2C2CCC2)[C@@H](c2ccc(Cl)c(Cl)c2)n2nc(C(C)(C)C)cc2N1`, the IC50 in series [2] was 283 nM.

In the case of `CC1=C(c2ncnn2C(C)(C)C)[C@@H](c2ccc(Cl)c(Cl)c2)n2nccc2N1`, the concentration for half-maximal inhibition (IC50) in series [2] was 223 nM.

As for `CC1=C(c2ncn(-c3ccc(C)cc3)n2)[C@@H](c2ccc(Cl)c(Cl)c2)n2nc(C)cc2N1`, the inhibition in series [3] came to 14%.

For the compound `CC1=C(c2ncnn2-c2ccc(F)cc2)[C@@H](c2ccc(Cl)c(Cl)c2)n2nccc2N1`, the half-maximal inhibitory concentration (IC50) in series [2] was 115 nM.

Consider `CC1=C(c2ncnn2C2CCC2)[C@@H](c2ccc(Cl)c(Cl)c2)n2nccc2N1`, for which the IC50 in series [2] came out at 48 nM.

As for `CC1=C(c2ncnn2-c2cccc(Cl)n2)[C@@H](c2ccc(Cl)c(Cl)c2)n2nc(C(F)(F)F)cc2N1`, the concentration for half-maximal inhibition (IC50) in series [2] is 190 nM.

Turning to `CC1=C(c2ncnn2CCCC(F)(F)F)[C@@H](c2ccc(Cl)c(Cl)c2)n2nccc2N1`, the IC50 in series [2] stood at 103 nM.

`COc1cccc(-n2cnc(C3=C(C)Nc4cc(C)nn4[C@@H]3c3ccc(Cl)c(Cl)c3)n2)c1`: the inhibition in series [3] worked out at 14%.

For `CC1=C(c2ncnn2-c2cccc(C)n2)[C@@H](c2ccc(Cl)c(Cl)c2)n2nc(C(F)(F)F)cc2N1`, the concentration for an effect of 20% (EC20) in series [4] was 440 nM. Also, the IC50 in series [2] was 211 nM.

Regarding `CC1=C(c2ncnn2CC2CC2)[C@@H](c2ccc(Cl)c(Cl)c2)n2nccc2N1`, in series [2], the half-maximal inhibitory concentration (IC50) worked out at 229 nM.

For `CC1=C(c2ncn[nH]2)[C@@H](c2ccc(Cl)c(Cl)c2)n2nccc2N1`, the inhibition in series [3] stood at 8%.

`CC1=C(c2ncnn2-c2cccc(C(F)(F)F)n2)[C@@H](c2ccc(Cl)c(Cl)c2)n2nc(C(F)(F)F)cc2N1` gave an EC20 in series [4] of 140 nM. In addition, the half-inhibitory concentration (IC50) in series [2] came to 96 nM.

As for `CC1=C(c2ncnn2-c2ccc(C)cc2)[C@@H](c2ccc(Cl)c(Cl)c2)n2nccc2N1`, the IC50 in series [2] stood at 80 nM.

`CC1=C(c2ncnn2-c2cc(C)ccn2)[C@@H](c2ccc(Cl)c(Cl)c2)n2nc(C(F)(F)F)cc2N1`: the EC20 in series [4] amounted to 440 nM. Moreover, the half-inhibitory concentration (IC50) in series [2] came to 410 nM.

The record behind these values is ChEMBL document CHEMBL2331425, “Triazolo and imidazo dihydropyrazolopyrimidine potassium channel antagonists” (Bioorg Med Chem Lett, 2013).
